In publication PMC4476799, “Englerin A Agonizes the TRPC4/C5 Cation Channels to Inhibit Tumor Cell Line Proliferation” (PLoS ONE, 2015):
Where two headings read alike, the source gives them in different places.

System: cancer cell lines from the cancer cell line encyclopedia (CCLE)
Assay: Cell line profiling (CLiP) proliferation experiment
Assay type: cell-based
Conditions: Homo sapiens; for IC50: read-out: Crossing Point; for EC50: read-out: Inflection Point
Protocol: Compound profiling experiment and data analysis was performed as previously described. Data was imported and plotted using the Tibco Spotfire DXP application. Lines were categorized as sensitive, intermediate and refractory as follows: Amax<-40 & Inflection Point <2 ~ Sensitive, Amax>-20 & Inflection Point >10 ~ Refractory, all else were called Intermediate. Cancer Cell line HG-U133 Plus 2 data was processed and normalized as described. […] Five sets of refractory cell lines were generated from the pool of refractory cell lines trying to match the lineage composition of the set of sensitive cell lines. The limma package was used as previously described to perform the statistical comparison.

[1] = RS4-11, RS4;11 (haematopoietic_and_lymphoid_tissue)
[2] = RS4-11, cell line RS4;11, haematopoietic_and_lymphoid_tissue, acute_lymphoblastic_B_cell_leukaemia
[3] = RT-112, cell line RT-112, urinary_tract, transitional_cell_carcinoma
[4] = RVH-421, cell line RVH-421, skin
[5] = SCaBER, cell line SCaBER, urinary_tract, transitional_cell_carcinoma
[6] = SET-2, cell line Set-2, haematopoietic_and_lymphoid_tissue, essential_thrombocythaemia
[7] = SF-126, cell line SF126, central_nervous_system, astrocytoma
[8] = SHP77, cell line SHP-77, lung, small_cell_carcinoma
[9] = SJRH30, cell line SJRH30, soft_tissue
[10] = SK-CO-1, cell line SK-CO-1, large_intestine, adenocarcinoma
[11] = SK-ES1, cell line SK-ES-1, bone
[12] = SK-MEL-24, cell line SK-MEL-24, skin
[13] = SK-MES-1, cell line SK-MES-1, lung, squamous_cell_carcinoma
[14] = SK-N-SH, cell line SK-N-SH, autonomic_ganglia
[15] = SKM-1, cell line SKM-1, haematopoietic_and_lymphoid_tissue, acute_myeloid_leukaemia
[16] = SNU1, cell line SNU-1, stomach, undifferentiated_adenocarcinoma
[17] = SNU-16, cell line SNU-16, stomach, undifferentiated_adenocarcinoma
[18] = SNU-475, cell line SNU-475, liver, hepatocellular_carcinoma
[19] = SNU-C1, SNU-C1 (large_intestine, adenocarcinoma)
[20] = ST486, ST486 (haematopoietic_and_lymphoid_tissue, Burkitt_lymphoma)
[21] = SU-DHL-4, SU-DHL-4 (haematopoietic_and_lymphoid_tissue, diffuse_large_B_cell_lymphoma)
[22] = SU-DHL-5, SU-DHL-5 (haematopoietic_and_lymphoid_tissue, diffuse_large_B_cell_lymphoma)
[23] = SU-DHL-8, SU-DHL-8 (haematopoietic_and_lymphoid_tissue, diffuse_large_B_cell_lymphoma)
[24] = SW48, SW48 (large_intestine, adenocarcinoma)
[25] = SW480, SW480 (large_intestine, adenocarcinoma)
[26] = SW1088, SW 1088 (central_nervous_system, NS)
[27] = SW1417, SW1417 (large_intestine, adenocarcinoma)
[28] = SW-620, SW620 (large_intestine, adenocarcinoma)
[29] = TE-11, TE-11 (oesophagus, squamous_cell_carcinoma)
[30] = TE-15, TE-15 (oesophagus, squamous_cell_carcinoma)
[31] = TOV112D, TOV-112D (ovary, endometrioid_carcinoma)
[32] = WSUDLCL2, WSU-DLCL2 cell line, haematopoietic_and_lymphoid_tissue, diffuse_large_B_cell_lymphoma
[33] = ZR-75-1, ZR-75-1 cell line, breast, ductal_carcinoma

CC(C)[C@@]12C[C@@H](O)[C@@](C)(O1)[C@@H]1CC[C@@H](C)[C@H]1[C@@H]2OC(=O)/C=C/c1ccccc1 [Englerin B]
25.6 µM: IC50 (UMUC3, UM-UC-3 cell line, urinary_tract, transitional_cell_carcinoma)
18.9 µM: IC50 (VM-CUB-1, VM-CUB1 cell line, urinary_tract, transitional_cell_carcinoma)
26.1 µM: IC50 [27] | EC50 [27]
12.9 µM: EC50 (SCaBER, SCaBER (urinary_tract)) | EC50 [5] | EC50 [18] | EC50 [33]
12.1 µM: EC50 (SNU1, SNU-1 (stomach)) | EC50 [16]
21.1 µM: IC50 [15] | IC50 (SKM-1, cell line SKM-1) | IC50 [33]
16.1 µM: EC50 (SJSA-1, SJSA-1 cells) | EC50 (SJSA-1, cell line SJSA-1, bone)
8.92 µM: EC50 [25]
2.41 µM: EC50 [26]
16.7 µM: IC50 (RT-112, RT-112 cells) | EC50 (RT-112, RT-112 cells) | IC50 [3] | EC50 [3]
17.9 µM: IC50 [1] | EC50 [1] | IC50 [2] | EC50 [2] | IC50 (THP-1, THP-1 (haematopoietic_and_lymphoid_tissue, acute_myeloid_leukaemia))
13.5 µM: EC50 (SNU-16, SNU-16 cells) | EC50 [17] | IC50 [20] | EC50 [20] | EC50 [29]
28 µM: IC50 (SK-MEL-30, cell line SK-MEL-30, skin)
14.5 µM: EC50 (SHP77, SHP-77 cells) | EC50 [8]
13.7 µM: IC50 (TE-11, TE-11 (oesophagus)) | IC50 [29]
14.8 µM: EC50 [19] | EC50 (SNU-C1, SNU-C1 cells)
12.8 µM: IC50 [28]
11.1 µM: EC50 [12]
29 µM: IC50 [24] | EC50 [24]
23.2 µM: IC50 [7]
> 30 µM: IC50 (RVH-421, RVH-421 cells) | IC50 [4] | IC50 (Rh18, RH-18 cells) | IC50 (Rh18, cell line RH-18) | IC50 (SCaBER, SCaBER (urinary_tract)) | IC50 [5] | IC50 (SHP77, SHP-77 cells) | IC50 [8] | IC50 (SK-BR-3, SK-BR-3 cells) | IC50 (SK-BR-3, cell line SK-BR-3, breast) | IC50 (SK-LMS-1, SK-LMS-1 cells) | IC50 (SK-LMS-1, cell line SK-LMS-1, soft_tissue) | IC50 (SK-LU-1, SK-LU-1 (lung)) | IC50 (SK-LU-1, cell line SK-LU-1, lung, adenocarcinoma) | IC50 (SK-MEL3, SK-MEL-3 cells) | IC50 (SK-MEL3, cell line SK-MEL-3, skin) | IC50 (SK-MEL-2, SK-MEL-2 (skin)) | IC50 (SK-MEL-2, SK-MEL-2, second row, PRIMARY_SITE (Empty)) | IC50 (SK-MEL-2, cell line SK-MEL-2, skin) | IC50 (SK-MEL-5, SK-MEL-5 (skin)) | IC50 (SK-MEL-5, cell line SK-MEL-5, skin) | IC50 (SK-MEL-24, SK-MEL-24 (skin)) | IC50 [12] | IC50 (SK-N-AS, SK-N-AS (autonomic_ganglia)) | IC50 (SK-N-AS, cell line SK-N-AS, autonomic_ganglia) | IC50 (SK-N-DZ, SK-N-DZ cells) | IC50 (SK-N-DZ, cell line SK-N-DZ, autonomic_ganglia) | IC50 (SK-N-FI, SK-N-FI (autonomic_ganglia)) | IC50 (SK-N-FI, cell line SK-N-FI, autonomic_ganglia) | IC50 (SK-N-SH, cell line SK-N-SH (autonomic_ganglia, NS)) | IC50 [14] | IC50 (SK-OV-3, SK-OV-3 (ovary)) | IC50 (SK-OV-3, cell line SK-OV-3, ovary, adenocarcinoma) | IC50 (SK-UT-1, SK-UT-1 (soft_tissue)) | IC50 (SK-UT-1, cell line SK-UT-1, soft_tissue) | IC50 (SKNBE2, cell line SK-N-BE(2), autonomic_ganglia) | IC50 (SKNBE2, cell line SK-N-BE(2)) | IC50 (SNB-19, SNB-19 cells) | IC50 (SNB-19, cell line SNB-19, central_nervous_system, astrocytoma_Grade_IV) | IC50 (SNU1, SNU-1 (stomach)) | IC50 [16] | IC50 (SNU-182, SNU-182 (liver)) | IC50 (SNU-182, cell line SNU-182, liver, hepatocellular_carcinoma) | IC50 (SNU-475, cell line SNU-475 (liver, hepatocellular_carcinoma)) | IC50 [18] | IC50 [19] | IC50 (SNU-C1, SNU-C1 cells) | IC50 (SW480, SW480 (large_intestine)) | IC50 [25] | IC50 (SW837, SW837 (large_intestine)) | IC50 (SW837, SW837 (large_intestine, adenocarcinoma)) | IC50 (SW948, SW948 (large_intestine)) | IC50 (SW948, SW948 (large_intestine, adenocarcinoma)) | IC50 (SW1088, SW 1088 (central_nervous_system)) | IC50 [26] | IC50 (SW1353, SW 1353 (bone)) | IC50 (SW1353, SW 1353 (bone, NS)) | IC50 (SW1573, SW 1573 (lung)) | IC50 (SW1573, SW 1573 (lung, squamous_cell_carcinoma)) | IC50 (SW1783, SW 1783 (central_nervous_system, astrocytoma_Grade_III)) | IC50 (SW1783, cell line SW 1783 (central_nervous_system, astrocytoma_Grade_III)) | IC50 (SW1990, SW 1990 (pancreas)) | IC50 (SW1990, SW 1990 (pancreas, ductal_carcinoma)) | IC50 (T47D, T-47D (breast)) | IC50 (T47D, T-47D (breast, ductal_carcinoma)) | IC50 (T98G, T98G (central_nervous_system)) | IC50 (T98G, T98G (central_nervous_system, astrocytoma_Grade_IV)) | IC50 (TE-10, TE-10 (oesophagus)) | IC50 (TE-10, TE-10 (oesophagus, squamous_cell_carcinoma)) | IC50 (U-118-MG, U-118 MG (central_nervous_system, astrocytoma)) | IC50 (U-118-MG, cell line U-118 MG) | IC50 (U-251, U-251 MG (central_nervous_system)) | IC50 (U-251, U-251 MG (central_nervous_system, astrocytoma)) | IC50 (UACC-62, UACC-62 (skin)) | IC50 (UACC-62, UACC-62 cell line, skin, NS) | IC50 (WM 266-4, WM-266-4 (skin)) | IC50 (WM 266-4, WM-266-4 cell line, skin, NS) | IC50 (WM793, WM-793 (skin)) | IC50 (WM793, WM-793 cell line, skin, NS) | IC50 (WM-115, WM-115 (skin)) | IC50 (WM-115, WM-115 cell line, skin, NS) | IC50 (YAPC, YAPC (pancreas)) | IC50 (YAPC, YAPC cell line, pancreas, NS) | IC50 (YKG-1, YKG1 (central_nervous_system)) | IC50 (YKG-1, YKG1 cell line, central_nervous_system, astrocytoma_Grade_IV) | IC50 (ZR-75-30, ZR-75-30 (breast))
19.5 µM: IC50 [31]
12.3 µM: EC50 (SF-126, SF126 cells) | EC50 [7]
15.2 µM: EC50 (SW1353, SW 1353 (bone, NS)) | IC50 (Z-138, Z-138 (haematopoietic_and_lymphoid_tissue)) | IC50 (Z-138, Z-138 cell line, haematopoietic_and_lymphoid_tissue, mantle_cell_lymphoma)
21.5 µM: EC50 [31]
14.7 µM: IC50 [22] | EC50 [22]
26 µM: IC50 [30] | EC50 [30]
15.9 µM: IC50 [6]
7.74 µM: EC50 [14]
21.6 µM: IC50 [11]
22.9 µM: EC50 (SET-2, Set-2 (haematopoietic_and_lymphoid_tissue)) | EC50 [6]
11.9 µM: EC50 [28]
18.5 µM: IC50 (SU-DHL10, SU-DHL-10 (haematopoietic_and_lymphoid_tissue, diffuse_large_B_cell_lymphoma))
17.8 µM: IC50 [10]
19.6 µM: IC50 (SK-MEL-1, cell line SK-MEL-1, skin)
17.6 µM: IC50 (Raji, cell line Raji)
21.8 µM: IC50 (TOV21G, TOV-21G (ovary, clear_cell_carcinoma))
15.5 µM: EC50 [9]
17.4 µM: IC50 [9]
20.5 µM: IC50 [21] | EC50 [21]
25 µM: EC50 (SK-MES-1, SK-MES-1 cells) | EC50 [13]
14.2 µM: IC50 [32] | EC50 [32]
26.5 µM: IC50 [13]
20.4 µM: EC50 [11]
19.1 µM: IC50 (SNU-449, SNU-449 (liver)) | IC50 (SNU-449, cell line SNU-449, liver, hepatocellular_carcinoma)
18.4 µM: EC50 (Raji, Raji cells) | EC50 (Raji, cell line Raji) | IC50 (Rec1, REC-1 cells) | EC50 (Rec1, REC-1 cells) | IC50 (Rec1, cell line REC-1) | EC50 (Rec1, cell line REC-1)
14.6 µM: IC50 [23] | IC50 (U-937, U-937 (haematopoietic_and_lymphoid_tissue, malignant_histiocytosis))
11.6 µM: EC50 (RVH-421, RVH-421 cells) | EC50 [4] | EC50 (Rh41, RH-41 (soft_tissue)) | IC50 (Rh41, cell line RH-41) | EC50 (Rh41, cell line RH-41) | EC50 (SK-CO-1, SK-CO-1 (large_intestine)) | EC50 [10]
24.5 µM: EC50 [15]
14.1 µM: IC50 [17]
13.2 µM: EC50 [23]
19.8 µM: IC50 (SF-295, cell line SF-295, central_nervous_system, astrocytoma_Grade_IV) | IC50 (UACC-257, UACC-257 (skin, NS))
29.1 µM: IC50 (SJSA-1, cell line SJSA-1, bone)
